How the values were obtained:
[1] = biological target: T1, Recombinant human BACE-1 (rhBACE-1) (Homo sapiens, UniProt P56817); test: Proteolytic cleavage of APP (glyco)peptides by BACE-1, RP-HPLC peak integration; format: biochemical; details: 100 μM substrate, 50 nM rhBACE-1, 0.1 M sodium acetate pH 4.0, 24 h, 37°C, dark; RP-HPLC peak integration at 214 nm, averaged from two injections, SD <5%
T1 construct: purchased R&D Systems #ES004 and #931-AS, respectively (so in the source)
Experimental: All APP-based substrates were prepared as 10 mM stocks in DMSO. Before proteolysis, the activity of BACE-1 was verified by the reaction with the fluorogenic BACE-1substrate Mca-[…](Dnp)RR-NH2 ([Koike et al., 1999]) as per the manufacturer’s instructions. For the proteolysis assay, APP-based substrates were diluted in BACE-1 activity buffer (0.1 M sodium acetate, pH 4.0) to the final assay concentration of 100 μM. BACE-1 was diluted to 50 nM final concentration. Reactions were incubated for 24 h at 37°C in the dark. After the incubation period, the enzyme cleavage solutions containing APP-based substrates and BACE-1 were analyzed using the analytical RP-HPLC method on the Aeris C18 column with 0.1% TFA in water (A) and 0.1% TFA in acetonitrile (B) as eluents and 0–60% B as the elution gradient over 30 min with a flow rate of 0.8 ml/min, and detection at 214 nm or the Vydac Denali C18 column with 0.1% TFA in water (A) and 0.1% TFA in acetonitrile (B) as eluents and 0–60% B as the elution gradient over 30 min with a flow rate of 1 ml/min, and detection at 214 nm. The identity of intact and cleaved (N- and C-terminal) fragments of (glyco)peptides in the absence and presence of BACE-1 (β-secretase) was confirmed by MALDI-TOF and their percentages were evaluated by the integration of the RP-HPLC peaks (averaged from two injections).
Glycosylation can alter substrate recognition and impact enzyme activity in either a positive (enhancing) or negative (inhibiting) manner ([Goettig, 2016]; [Goth et al., 2018]). The mucin-type O-linked glycosylation of a protein may not only affect its conformation but also affect its transport and localization in the cell ([Matsuura et al., 1989]; [Chen et al., 2002]). Proteases are highly regulated by post-translational modifications and drive fate, localization, and activity of many proteins ([Bond, 2019]). Certain mutations can also affect the subcellular localization of the cleavage event by crucial proteases and mediate a different cellular mechanism for the protein ([Haass et al., 1995]). […] Therefore, similar enzyme cleavage assays with BACE-1 were set up to explore the effect of the Swedish mutation, length of the amino acid sequence, glycan position and valency on the proteolytic susceptibility of 3–12. BACE1 produced two fragments upon cleavage of (glyco)peptides, for which yields were determined after 24 h treatment. The yields of intact peptide and fragments were evaluated by the RP-HPLC peaks integration (Table 3, and the Supplementary Material S20–S32).
3. Enzyme cleavage assays with APP (glyco)peptides 3-12 by RP-HPLC and MALDI-TOF MS
For the BACE1 enzyme cleavage assay, APP-based (glyco)peptide substrates were diluted in BACE1 activity buffer and incubated with BACE1 for 24 h at 37 °C in the dark. After the incubation period, the enzyme cleavage solutions containing APP-based (glyco)peptide substrates and BACE1 were analyzed using analytical RP-HPLC.
RP-HPLC gradient on Phenomenex Aeris Peptide C18 column (150 x 4.6 mm, 3.6 µm, 100Å):
Eluents were 0.1% TFA in water (A) and 0.1% TFA in acetonitrile (B). The elution gradient was 0-60%B in 30 minutes with a flow rate of 0.8 mL/min. Detection was at λ = 214 nm.
S*/T*= Ser(-α-GalNAc) 1/Thr(-α-GalNAc) 2
(a) APP665-680, 3 in activity buffer
(b) APP665-680 (3) + BACE1 in activity buffer […]

[2] = CD spectroscopy, secondary structure content by BeStSel; format: physicochemical; details: for RC (%) random coil / α-H (%) α-helix / β-AP (%) anti-parallel β-sheet / β-P (%) parallel β-sheet / β-T (%) β-turn: CD, BeStSel, 0.065 mg/ml, 25°C
Experimental: All (glyco)peptides were analyzed for their secondary structure using circular dichroism (CD) spectroscopy on a Jasco-810 spectropolarimeter (Jasco, Easton, MD) in three solvent systems: water, 10 mM sodium phosphate buffer (pH 7.4), and 50% trifluoroethanol (TFE) in water (v/v) mixture. The CD spectra were recorded using a quartz cell of 1 mm optical path length over a wavelength range of […] with a scanning speed of 100 nm/min and a response time of 4 s at 25°C. A concentration of 0.065 mg/ml, determined using the analytical RP-HPLC method, gave the […] signal-to-noise ratio for all (glyco)peptides. All spectra were baseline-corrected to account for the signal contribution from solvent and then converted into molar ellipticity (deg cm^2 dmol^−1) ([Sreerama and Woody, 2000]). Lastly, the percentages of all secondary structures were determined using the BeStSel method ([Micsonai et al., 2018]; [Singh et al., 2021]).
To study the role of O-glycosylation on the conformation of APP glycopeptides, circular dichroism (CD) spectroscopy was used to probe the secondary structure in three different solvents, water, sodium phosphate buffer (10 mM, pH 7.4), and 50% trifluoroethanol (TFE) in water (v/v) (Figure 1). The spectra were further analysed for secondary structure estimations by Beta Structure Selection (BeStSel) method, specifically designed for the analysis of beta sheet-rich proteins (Table 2) ([Micsonai et al., 2015], [2018]).

[3] = (B) 10 mM sodium phosphate buffer, pH 7.4

T1 sequence (P56817 46-457 limits assumed): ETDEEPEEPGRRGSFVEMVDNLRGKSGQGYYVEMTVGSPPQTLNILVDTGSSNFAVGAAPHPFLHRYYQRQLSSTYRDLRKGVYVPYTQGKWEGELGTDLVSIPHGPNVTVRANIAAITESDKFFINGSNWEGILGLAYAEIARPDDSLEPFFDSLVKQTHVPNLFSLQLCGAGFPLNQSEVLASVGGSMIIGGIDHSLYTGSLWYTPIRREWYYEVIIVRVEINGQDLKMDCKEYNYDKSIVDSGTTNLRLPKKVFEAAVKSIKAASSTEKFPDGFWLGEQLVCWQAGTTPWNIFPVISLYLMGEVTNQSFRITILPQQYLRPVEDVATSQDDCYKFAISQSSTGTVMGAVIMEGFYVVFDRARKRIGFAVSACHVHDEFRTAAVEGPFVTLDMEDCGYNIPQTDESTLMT

Molecule: CC[C@H](C)[C@H](NC(=O)[C@@H](N)CCC(=O)O)C(=O)N[C@@H](CO)C(=O)N[C@@H](CCC(=O)O)C(=O)N[C@H](C(=O)N[C@@H](CCCCN)C(=O)N[C@@H](CCSC)C(=O)N[C@@H](CC(=O)O)C(=O)N[C@@H](C)C(=O)N[C@@H](CCC(=O)O)C(=O)N[C@@H](Cc1ccccc1)C(=O)N[C@@H](CCCNC(=N)N)C(=O)N[C@@H](Cc1c[nH]cn1)C(=O)N[C@@H](CC(=O)O)C(=O)N[C@@H](CO)C(=O)NCC(N)=O)C(C)C [compound 3]
- BACE-1 activity, Cleaved (%) [1]: 4.48%
- BACE-1 activity, Recovered (%) [1]: 95.5%

Molecule: CC[C@H](C)[C@H](NC(=O)[C@@H](N)CCC(=O)O)C(=O)N[C@@H](CO[C@H]1O[C@H](CO)[C@H](O)[C@H](O)[C@H]1NC(C)=O)C(=O)N[C@@H](CCC(=O)O)C(=O)N[C@H](C(=O)N[C@@H](CCCCN)C(=O)N[C@@H](CCSC)C(=O)N[C@@H](CC(=O)O)C(=O)N[C@@H](C)C(=O)N[C@@H](CCC(=O)O)C(=O)N[C@@H](Cc1ccccc1)C(=O)N[C@@H](CCCNC(=N)N)C(=O)N[C@@H](Cc1c[nH]cn1)C(=O)N[C@@H](CC(=O)O)C(=O)N[C@@H](CO)C(=O)NCC(N)=O)C(C)C [compound 4]
- BACE-1 activity, Cleaved (%) [1]: 1.40%
- BACE-1 activity, Recovered (%) [1]: 98.6%

Molecule: CC[C@H](C)[C@H](NC(=O)[C@@H](N)CCC(=O)O)C(=O)N[C@@H](CO)C(=O)N[C@@H](CCC(=O)O)C(=O)N[C@H](C(=O)N[C@@H](CC(N)=O)C(=O)N[C@@H](CC(C)C)C(=O)N[C@@H](CC(=O)O)C(=O)N[C@@H](C)C(=O)N[C@@H](CCC(=O)O)C(=O)N[C@@H](Cc1ccccc1)C(=O)N[C@@H](CCCNC(=N)N)C(=O)N[C@@H](Cc1c[nH]cn1)C(=O)N[C@@H](CC(=O)O)C(=O)N[C@@H](CO)C(=O)NCC(N)=O)C(C)C [compound 5]
- BACE-1 activity, Cleaved (%) [1]: 96.2%
- BACE-1 activity, Recovered (%) [1]: 3.82%

Molecule: CC[C@H](C)[C@H](NC(=O)[C@@H](N)CCC(=O)O)C(=O)N[C@@H](CO[C@H]1O[C@H](CO)[C@H](O)[C@H](O)[C@H]1NC(C)=O)C(=O)N[C@@H](CCC(=O)O)C(=O)N[C@H](C(=O)N[C@@H](CC(N)=O)C(=O)N[C@@H](CC(C)C)C(=O)N[C@@H](CC(=O)O)C(=O)N[C@@H](C)C(=O)N[C@@H](CCC(=O)O)C(=O)N[C@@H](Cc1ccccc1)C(=O)N[C@@H](CCCNC(=N)N)C(=O)N[C@@H](Cc1c[nH]cn1)C(=O)N[C@@H](CC(=O)O)C(=O)N[C@@H](CO)C(=O)NCC(N)=O)C(C)C [compound 6]
- BACE-1 activity, Cleaved (%) [1]: 93.0%
- BACE-1 activity, Recovered (%) [1]: 7.02%

Molecule: CC[C@H](C)[C@H](N)C(=O)N[C@@H](CCCCN)C(=O)N[C@H](C(=O)N[C@@H](CCC(=O)O)C(=O)N[C@@H](CCC(=O)O)C(=O)N[C@H](C(=O)N[C@@H](CO)C(=O)N[C@@H](CCC(=O)O)C(=O)N[C@H](C(=O)N[C@@H](CCCCN)C(=O)N[C@@H](CCSC)C(=O)N[C@@H](CC(=O)O)C(=O)N[C@@H](C)C(=O)N[C@@H](CCC(=O)O)C(=O)N[C@@H](Cc1ccccc1)C(=O)N[C@@H](CCCNC(=N)N)C(=O)N[C@@H](Cc1c[nH]cn1)C(=O)N[C@@H](CC(=O)O)C(=O)N[C@@H](CO)C(=O)NCC(N)=O)C(C)C)[C@@H](C)CC)[C@@H](C)O [compound 7]
- BACE-1 activity, Cleaved (%) [1]: 3.40%
- BACE-1 activity, Recovered (%) [1]: 96.6%

Molecule: CC[C@H](C)[C@H](N)C(=O)N[C@@H](CCCCN)C(=O)N[C@H](C(=O)N[C@@H](CCC(=O)O)C(=O)N[C@@H](CCC(=O)O)C(=O)N[C@H](C(=O)N[C@@H](CO)C(=O)N[C@@H](CCC(=O)O)C(=O)N[C@H](C(=O)N[C@@H](CC(N)=O)C(=O)N[C@@H](CC(C)C)C(=O)N[C@@H](CC(=O)O)C(=O)N[C@@H](C)C(=O)N[C@@H](CCC(=O)O)C(=O)N[C@@H](Cc1ccccc1)C(=O)N[C@@H](CCCNC(=N)N)C(=O)N[C@@H](Cc1c[nH]cn1)C(=O)N[C@@H](CC(=O)O)C(=O)N[C@@H](CO)C(=O)NCC(N)=O)C(C)C)[C@@H](C)CC)[C@@H](C)O [compound 10]
- BACE-1 activity, Cleaved (%) [1]: 79.7%
- BACE-1 activity, Recovered (%) [1]: 20.3%

Molecule: CC[C@H](C)[C@H](N)C(=O)N[C@@H](CCCCN)C(=O)N[C@H](C(=O)N[C@@H](CCC(=O)O)C(=O)N[C@@H](CCC(=O)O)C(=O)N[C@H](C(=O)N[C@@H](CO)C(=O)N[C@@H](CCC(=O)O)C(=O)N[C@H](C(=O)N[C@@H](CC(N)=O)C(=O)N[C@@H](CC(C)C)C(=O)N[C@@H](CC(=O)O)C(=O)N[C@@H](C)C(=O)N[C@@H](CCC(=O)O)C(=O)N[C@@H](Cc1ccccc1)C(=O)N[C@@H](CCCNC(=N)N)C(=O)N[C@@H](Cc1c[nH]cn1)C(=O)N[C@@H](CC(=O)O)C(=O)N[C@@H](CO)C(=O)NCC(N)=O)C(C)C)[C@@H](C)CC)[C@@H](C)O[C@H]1O[C@H](CO)[C@H](O)[C@H](O)[C@H]1NC(C)=O [compound 11]
- BACE-1 activity, Cleaved (%) [1]: 98.1%
- BACE-1 activity, Recovered (%) [1]: 1.90%

Molecule: CC[C@H](C)[C@H](N)C(=O)N[C@@H](CCCCN)C(=O)N[C@H](C(=O)N[C@@H](CCC(=O)O)C(=O)N[C@@H](CCC(=O)O)C(=O)N[C@H](C(=O)N[C@@H](CO[C@H]1O[C@H](CO)[C@H](O)[C@H](O)[C@H]1NC(C)=O)C(=O)N[C@@H](CCC(=O)O)C(=O)N[C@H](C(=O)N[C@@H](CC(N)=O)C(=O)N[C@@H](CC(C)C)C(=O)N[C@@H](CC(=O)O)C(=O)N[C@@H](C)C(=O)N[C@@H](CCC(=O)O)C(=O)N[C@@H](Cc1ccccc1)C(=O)N[C@@H](CCCNC(=N)N)C(=O)N[C@@H](Cc1c[nH]cn1)C(=O)N[C@@H](CC(=O)O)C(=O)N[C@@H](CO)C(=O)NCC(N)=O)C(C)C)[C@@H](C)CC)[C@@H](C)O[C@H]1O[C@H](CO)[C@H](O)[C@H](O)[C@H]1NC(C)=O [compound 12]
- BACE-1 activity, Cleaved (%) [1]: 96.1%
- BACE-1 activity, Recovered (%) [1]: 3.90%

Molecule: IKT*EEIS*EVKM∼DAEFRHDSG [compound 9, native APP 661-680 glycopeptide with O-GalNAc on Thr^663 and Ser^667]
- RC (%) random coil ([2]; (A) water): 22.4%
- α-H (%) α-helix ([2]; (A) water): 12.8%
- β-AP (%) anti-parallel β-sheet ([2]; (A) water): 48.2%
- β-P (%) parallel β-sheet ([2]; (A) water): 0.0%
- β-T (%) β-turn ([2]; (A) water): 16.6%
- RC (%) random coil [2, 3]: 48.7%
- α-H (%) α-helix [2, 3]: 9.5%
- β-AP (%) anti-parallel β-sheet [2, 3]: 24.6%
- β-P (%) parallel β-sheet [2, 3]: 0.0%
- β-T (%) β-turn [2, 3]: 17.1%
- RC (%) random coil ([2]; (C) TFE/water = 1:1 (v/v)): 0.0%
- α-H (%) α-helix ([2]; (C) TFE/water = 1:1 (v/v)): 94.4%
- β-AP (%) anti-parallel β-sheet ([2]; (C) TFE/water = 1:1 (v/v)): 0.0%
- β-P (%) parallel β-sheet ([2]; (C) TFE/water = 1:1 (v/v)): 0.0%
- β-T (%) β-turn ([2]; (C) TFE/water = 1:1 (v/v)): 5.6%
- β-structure (anti-parallel β-sheet, parallel β-sheet, and β-turn) ([2]; water, sum of BeStSel contents): 64.8%
- BACE-1 activity, Cleaved (%) [1]: 4.12%
- BACE-1 activity, Recovered (%) [1]: 95.9%

Source: publication PMC9023740, “Mucin-Type O-Glycosylation Proximal to β-Secretase Cleavage Site Affects APP Processing and Aggregation Fate” (Frontiers in Chemistry, 2022)
